Assay results reported in the supplement of paper PMC11208160.

Assay: recombinant barcode read abundance after kanamycin selection (control-corrected) (log10(CPM+1)); higher = more efficient recombination; sequences stand for … in AGTGCAGAGAAAATCGGCCAGTTTTCTCTGCCTGCAGTCCGCATGCCGT…AGATTTATGCAGCGGACTGCCTTTCTCCCAAAGTGATAAACCGGACAGTATCATGGACCGGTTTTCCCGGTAATCCGTATTTGCAAGGTTGGTTTCACT; site = the 11-nt target
Protocol: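 Pooled E. coli target-specificity screen for the IS621 bridge recombinase. Each library plasmid pairs an 11-nt target (CT core) with a bridge RNA whose target-binding loop (9-nt LTG + 4-nt RTG) is reprogrammed; the rest of the 177-nt WT IS621 bridge RNA scaffold is fixed. The plasmid is co-electroporated with a WT donor plasmid; recombinase is induced with 0.1 mM IPTG and recombinants are selected on kanamycin. Recombinant barcodes are sequenced, converted to CPM, averaged over two biological replicates and corrected by the unselected control CPM. Molecule = full bridge RNA written as DNA: LTG = specificity nt 1-9, RTG = reverse complement of specificity nt 8-11, in the WT scaffold.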
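Note: IS621 recombinase and bridge RNA in Escherichia coli cells.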

Sequence | recombinant barcode read abundance (log10)
AAGATACCTTGGGTTCTAACCTGTTGCTG (site AAGATACCTCA) | 1.76
AAGATATCTTGGGTTCTAACCTGTTGCCT (site AAGATATCTAG) | 1.86
AAGATATCTTGGGTTCTAACCTGTTGCCT (site ACGATATCTAG) | 0.119
AAGATATCTTGGGTTCTAACCTGTTGCCT (site AGGATATCTAG) | 0
AAGATATCTTGGGTTCTAACCTGTTGCCT (site ATGATATCTAG) | 0.0647
AAGCACCCTTGGGTTCTAACCTGTTGCAG (site AAGCACCCTCT) | 2.59
AAGCACCCTTGGGTTCTAACCTGTTGCAG (site TAGCACTCTCT) | 0.311
AAGCACCCTTGGGTTCTAACCTGTTGCTG (site AAGCACCCTCA) | 2.02
AAGCACCCTTGGGTTCTAACCTGTTGCTG (site CCTGCGACTGT) | 0.276
AAGCCTACTTGGGTTCTAACCTGTTGCTA (site AAGCCTACTTA) | 1.27
AAGCCTACTTGGGTTCTAACCTGTTGCTA (site GAGCCTACTTA) | 0.0396
AAGGCCTCTTGGGTTCTAACCTGTTGCAT (site AAGGCCTCTAT) | 2.93
AAGGCCTCTTGGGTTCTAACCTGTTGCAT (site AAGGCCTCTTG) | 0.247
AAGGCTACTTGGGTTCTAACCTGTTGCCT (site AAGGCTACTAG) | 0.304
AAGGCTACTTGGGTTCTAACCTGTTGCCT (site AAGGCTTCTAG) | 0.144
AAGGTACCTTGGGTTCTAACCTGTTGCGG (site AAGGTACCTCC) | 2.69
AAGGTACCTTGGGTTCTAACCTGTTGCGG (site GTCACTACTAT) | 0.0994
AAGGTCACTTGGGTTCTAACCTGTTGCCT (site AAGGTCACTAG) | 2.24
AAGGTCACTTGGGTTCTAACCTGTTGCCT (site ACGGTCACTAG) | 0.816
AAGGTCACTTGGGTTCTAACCTGTTGCCT (site AGGGTCACTAG) | 0.0802
AAGGTCACTTGGGTTCTAACCTGTTGCCT (site ATGGTCACTAG) | 0.361
AAGGTCACTTGGGTTCTAACCTGTTGCTG (site AAGGTCACTCA) | 2.52

Sequence | recombinant barcode read abundance (log10)
AAGGTCACTTGGGTTCTAACCTGTTGCTG (site GTACATCCTAC) | 0.0968
AAGTCCACTTGGGTTCTAACCTGTTGCCT (site AAGTCCACTAG) | 0.934
AAGTCCACTTGGGTTCTAACCTGTTGCCT (site ATTTCCACTAG) | 0.027
AAGTCTCCTTGGGTTCTAACCTGTTGCAG (site AAGTCTCCTCT) | 0.174
AAGTCTCCTTGGGTTCTAACCTGTTGCAG (site GCAATATCTAG) | 0.116
AAGTCTCCTTGGGTTCTAACCTGTTGCCT (site AAGACTCCTAG) | 0.134
AAGTCTCCTTGGGTTCTAACCTGTTGCCT (site AAGTCTCCTAG) | 0.64
AAGTGAGCTTGGGTTCTAACCTGTTGCAG (site AAGTGAGCTCT) | 2.69
AAGTGAGCTTGGGTTCTAACCTGTTGCAG (site AATAGAGCTCT) | 0.12
AAGTGGACTTGGGTTCTAACCTGTTGCCT (site AAGTCGACTAG) | 0.121
AAGTGGACTTGGGTTCTAACCTGTTGCCT (site AAGTGGACTAG) | 1.93
AAGTTAGCTTGGGTTCTAACCTGTTGCGG (site AAGTTAGCTCC) | 2.28
AAGTTAGCTTGGGTTCTAACCTGTTGCGG (site GGCAACTCTAG) | 0.108
AAGTTGACTTGGGTTCTAACCTGTTGCCT (site AAATTGACTAG) | 0.378
AAGTTGACTTGGGTTCTAACCTGTTGCCT (site AACTTGACTAG) | 0.248
AAGTTGACTTGGGTTCTAACCTGTTGCCT (site AAGTTGACTAG) | 1.57
AAGTTGACTTGGGTTCTAACCTGTTGCCT (site AATTTGACTAG) | 0.304
AATAACCCTTGGGTTCTAACCTGTTGCCT (site AATAACCCTAG) | 1.2
AATAACCCTTGGGTTCTAACCTGTTGCCT (site ACTAACCCTAG) | 0.145
AATAACCCTTGGGTTCTAACCTGTTGCCT (site AGTAACCCTAG) | 0.146
AATAACCCTTGGGTTCTAACCTGTTGCCT (site ATTAACCCTAG) | 0.0794
AATAGCTCTTGGGTTCTAACCTGTTGCCT (site AATAGCTCTAG) | 0.82

Sequence | recombinant barcode read abundance (log10)
AATAGCTCTTGGGTTCTAACCTGTTGCCT (site CATAGCTCTAG) | 0.0982
AATAGCTCTTGGGTTCTAACCTGTTGCCT (site GATAGCTCTAG) | 0.166
AATAGCTCTTGGGTTCTAACCTGTTGCCT (site TATAGCTCTAG) | 0.116
AATATCTCTTGGGTTCTAACCTGTTGCCA (site AATATCTCTTG) | 0.278
AATATCTCTTGGGTTCTAACCTGTTGCCA (site CTACCTACTCC) | 0.144
AATATGCCTTGGGTTCTAACCTGTTGCCT (site AATATGCCTAG) | 0.582
AATATGCCTTGGGTTCTAACCTGTTGCCT (site AATCTCCCTAG) | 0.0372
AATGCTTCTTGGGTTCTAACCTGTTGCCT (site AATGCTTCTAG) | 1.05
AATGCTTCTTGGGTTCTAACCTGTTGCCT (site AATTGTTCTAG) | 0.167
AATGGGACTTGGGTTCTAACCTGTTGCCT (site AATGGGACTAG) | 1.72
AATGGGACTTGGGTTCTAACCTGTTGCCT (site AATGGGCCTAG) | 0.171
AATGGGACTTGGGTTCTAACCTGTTGCCT (site AATGGGGCTAG) | 0.222
AATGGGACTTGGGTTCTAACCTGTTGCCT (site AATGGGTCTAG) | 0.0882
AATGGGGCTTGGGTTCTAACCTGTTGCCT (site AATGGGACTAG) | 0.369
AATGGGGCTTGGGTTCTAACCTGTTGCCT (site AATGGGCCTAG) | 0.189
AATGGGGCTTGGGTTCTAACCTGTTGCCT (site AATGGGGCTAG) | 0.79
AATGGGGCTTGGGTTCTAACCTGTTGCCT (site AATGGGTCTAG) | 0.274
AATGTATCTTGGGTTCTAACCTGTTGCCT (site AATGAATCTAG) | 0
AATGTATCTTGGGTTCTAACCTGTTGCCT (site AATGCATCTAG) | 0.0382
AATGTATCTTGGGTTCTAACCTGTTGCCT (site AATGGATCTAG) | 0.0435
AATGTATCTTGGGTTCTAACCTGTTGCCT (site AATGTATCTAG) | 1.17
AATTCGACTTGGGTTCTAACCTGTTGCCT (site AATTCGACTAG) | 0.399
